From ChEMBL document CHEMBL6078687 (J Med Chem, 2024)

Experiments:
[1] = Tmax in Sprague-Dawley rat at 20 mg/kg, po measured for 15 to 1440 mins by LC-MS/MS analysis; type: ADME, organism-based; settings: in vivo, time 15-1440 min
[2] = MRT (0 to t) in Sprague-Dawley rat at 20 mg/kg, po measured for 15 to 1440 mins by LC-MS/MS analysis; type: ADME, organism-based; settings: in vivo, time 15-1440 min
[3] = Oral bioavailability in Sprague-Dawley rat at 20 mg/kg measured for 15 to 1440 mins by LC-MS/MS analysis; type: ADME, organism-based; settings: in vivo, time 15-1440 min
[4] = MRT (0 to infinity) in Sprague-Dawley rat at 2 mg/kg, iv measured for 15 to 1440 mins by LC-MS/MS analysis; type: ADME, organism-based; settings: in vivo, time 15-1440 min
[5] = Cytotoxicity against MDCK cells incubated for 48 hrs by MTT assay; type: toxicity, cell-based, Canis lupus familiaris; settings: dog
[6] = Acute toxicity in Kunming mouse assessed as signs of sedation at 1000 mg/kg, IG measured for 1 week; type: organism-based; settings: in vivo, po, 168 h, time 1 weeks
[7] = Metabolic stability in human liver microsomes assessed as compound remaining incubated for 60 mins by LC-MS/MS analysis; type: ADME, Microsome; settings: 1 h
[8] = MRT (0 to infinity) in Sprague-Dawley rat at 20 mg/kg, po measured for 15 to 1440 mins by LC-MS/MS analysis; type: ADME, organism-based; settings: in vivo, time 15-1440 min
[9] = in vivo; settings: Sprague-Dawley, rat, po, 20 mg/kg
[10] = Cmax in Sprague-Dawley rat at 20 mg/kg, po measured for 15 to 1440 mins by LC-MS/MS analysis; type: ADME, organism-based; settings: in vivo, time 15-1440 min
[11] = Cytotoxicity against CEF cells incubated for 48 hrs by CCK8 assay; type: toxicity, cell-based, Gallus gallus; settings: chicken
[12] = in vivo; settings: Sprague-Dawley, rat, iv, 2 mg/kg
[13] = test system: Influenza A virus; experiment: microbe, parasite or virus in culture; settings: A/Goose/Jiangsu/1306/2014 H5N8, CEF, 48 h
[14] = Acute toxicity in Kunming mouse assessed as drug tolerance at 1000 mg/kg, IG measured for 1 week; type: organism-based; settings: in vivo, po, 168 h, time 1 weeks
[15] = Inhibition of neuraminidase in Influenza A virus A/Goose/Guangdong/SH7/2013 H5N1 using MUNANA as substrate incubated for 40 mins by […] based assay
[16] = Cmax in Sprague-Dawley rat at 2 mg/kg, iv measured for 15 to 1440 mins by LC-MS/MS analysis; type: ADME, organism-based; settings: in vivo, time 15-1440 min
[17] = Inhibition of neuraminidase in Influenza A virus A/Babol/36/2005 H3N2 using MUNANA as substrate incubated for 40 mins by […] based assay
[18] = in vivo; settings: Sprague-Dawley, rat, iv, 2 mg/kg; remark: listed apart in the source
[19] = test system: Influenza A virus; experiment: Antiviral activity against Influenza A virus A/WSN/67/05 H3N2 infected in MDCK cells assessed as inhibition of plaque formation measured after 2 days; settings: A/WSN/67/05 H3N2, MDCK, 48 h
[20] = Acute toxicity in Kunming mouse assessed as increase in body weight at 1000 mg/kg, IG measured for 1 week; type: organism-based; settings: in vivo, po, 168 h, time 1 weeks
[21] = Tmax in Sprague-Dawley rat at 2 mg/kg, iv measured for 15 to 1440 mins by LC-MS/MS analysis; type: ADME, organism-based; settings: in vivo, time 15-1440 min
[22] = test system: Influenza A virus; experiment: microbe, parasite or virus in culture; settings: A/Goose/Guangdong/SH7/2013 H5N1, CEF, 48 h
[23] = Apparent volume of distribution in Sprague-Dawley rat at 2 mg/kg, iv measured for 15 to 1440 mins by LC-MS/MS analysis; type: ADME, organism-based; settings: in vivo, time 15-1440 min, read-out: Vz
[24] = Metabolic stability in human plasma assessed as compound remaining at 2 uM incubated upto 120 mins by LC-MS/MS analysis; type: ADME, cell-free; settings: read-out: Stability
[25] = Acute toxicity in Kunming mouse assessed as signs of convulsion movements at 1000 mg/kg, IG measured for 1 week; type: organism-based; settings: in vivo, po, 168 h, time 1 weeks
[26] = Half life in Sprague-Dawley rat at 2 mg/kg, iv measured for 15 to 1440 mins by LC-MS/MS analysis; type: ADME, organism-based; settings: in vivo, time 15-1440 min
[27] = Metabolic stability in human plasma assessed as half life at 2 uM incubated upto 120 mins by LC-MS/MS analysis; type: ADME, cell-free
[28] = in vitro; settings: human, liver microsomes
[29] = MRT (0 to t) in Sprague-Dawley rat at 2 mg/kg, iv measured for 15 to 1440 mins by LC-MS/MS analysis; type: ADME, organism-based; settings: in vivo, time 15-1440 min
[30] = in vivo; settings: Sprague-Dawley, rat, po, 20 mg/kg; remark: listed apart in the source
[31] = Clearance in Sprague-Dawley rat at 2 mg/kg, iv measured for 15 to 1440 mins by LC-MS/MS analysis; type: ADME, organism-based; settings: in vivo, time 15-1440 min
[32] = Acute toxicity in Kunming mouse assessed as signs of appetite loss at 1000 mg/kg, IG measured for 1 week; type: organism-based; settings: in vivo, po, 168 h, time 1 weeks
[33] = in vitro; settings: human, liver microsomes; remark: listed apart in the source
[34] = Half life in Sprague-Dawley rat at 20 mg/kg, po measured for 15 to 1440 mins by LC-MS/MS analysis; type: ADME, organism-based; settings: in vivo, time 15-1440 min
[35] = Acute toxicity in Kunming mouse assessed as animal mortality at 1000 mg/kg, IG measured for 1 week; type: organism-based; settings: in vivo, po, 168 h, time 1 weeks
[36] = Acute toxicity in Kunming mouse assessed as signs of disheveled fur at 1000 mg/kg, IG measured for 1 week; type: organism-based; settings: in vivo, po, 168 h, time 1 weeks
[37] = test system: Influenza A virus; experiment: microbe, parasite or virus in culture; settings: A/PR/8/34 H1N1, MDCK, 48 h

CCC(CC)O[C@@H]1C=C(C(=O)O)C[C@H](NCc2ccc(OCc3cccc(B(O)O)c3)cc2C)[C@H]1NC(C)=O
Tmax [1]: 1320 min | MRT last [2]: 48.6 min | bioavailability [3]: 0.15% | MRT inf [4]: 7.8 min | EC50 at 48 h [5]: > 250 µM | Activity [6]: Non-toxic | Stability [7]: 112.2% | MRT inf [8]: 117 min | AUC(0-inf) [9]: 20.3 ng·h/mL | Cmax [10]: 10.4 ng/mL | CC50 at 48 h [11]: > 200 µM | AUC(0-inf) [12]: 1380 ng·h/mL | EC50 [13]: 1.27 µM | Activity [14]: Non-toxic | IC50 [15]: 0.09 µM | Cmax [16]: 4850 ng/mL | IC50 [17]: 0.47 µM | AUC(0-t) [18]: 1370 ng·h/mL | EC50 [19]: 67.5 µM | Activity [20]: Toxic | Tmax [21]: 4.98 min | EC50 [22]: 1.29 µM | Vd [23]: 0.511 L/kg | remaining at 2 h, 2 µM [24]: 99.3% | Activity [25]: Non-toxic | half-life [26]: 15 min | half-life at 2 µM [27]: > 289 min | CLint scaled at 2 h [28]: 10.1 mL/min/kg | MRT last [29]: 7.8 min | AUC(0-t) [30]: 12.7 ng·h/mL | clearance [31]: 24.8 mL/min/kg | Activity [32]: Non-toxic | microsomal CLint at 2 h [33]: 11.2 µL/min/mg | half-life [34]: 78.6 min | Activity [35]: Non-toxic | Activity [36]: Non-toxic | EC50 [37]: 0.008 µM

CCC(CC)O[C@@H]1C=C(C(=O)O)C[C@H](NCc2ccc(OCc3cccc(B(O)O)c3)cc2Cl)[C@H]1NC(C)=O
Tmax [1]: 15 min | MRT last [2]: 46.8 min | bioavailability [3]: 0.65% | MRT inf [4]: 10.2 min | EC50 at 48 h [5]: > 250 µM | Activity [6]: Non-toxic | Stability [7]: 98.6% | MRT inf [8]: 54.6 min | AUC(0-inf) [9]: 48.8 ng·h/mL | Cmax [10]: 57.5 ng/mL | CC50 at 48 h [11]: > 200 µM | AUC(0-inf) [12]: 749 ng·h/mL | EC50 [13]: 3.26 µM | Activity [14]: Non-toxic | IC50 [15]: 0.017 µM | Cmax [16]: 2520 ng/mL | IC50 [17]: 0.26 µM | AUC(0-t) [18]: 747 ng·h/mL | EC50 [19]: > 100 µM | Activity [20]: Toxic | Tmax [21]: 4.98 min | EC50 [22]: 5.41 µM | Vd [23]: 1.12 L/kg | remaining at 2 h, 2 µM [24]: 104% | Activity [25]: Non-toxic | half-life [26]: 16.8 min | half-life at 2 µM [27]: > 289 min | CLint scaled at 2 h [28]: 12.2 mL/min/kg | MRT last [29]: 9.6 min | AUC(0-t) [30]: 47 ng·h/mL | clearance [31]: 45.5 mL/min/kg | Activity [32]: Non-toxic | microsomal CLint at 2 h [33]: 13.6 µL/min/mg | half-life [34]: 41.4 min | Activity [35]: Non-toxic | Activity [36]: Non-toxic | EC50 [37]: 0.008 µM
